Laboratory results: patent US3989598A (priority 1962, dated 1976)
In brackets after ≈: the same amount, converted by molar mass.

Legend:
[1] = system: Bacillus subtilis (strain 3 R 9575, Merck - ATCC 9524); test: bacteriostatic activity, dilution method in nutritive broth; assay type: cell-based; conditions: ATCC9524, read-out: Minimal bacteriostatic concentration
[2] = clinical dosage in acute leukaemias: maximum safe dose; conditions: human, in vivo, iv, overall dosage of initial treatment, calculated per kg weight
Method: Treatment of acute leukaemias must be intensive and of short duration; depending on the case, it comprises one or more courses. In the lymphoblstic forms of leukaemia, the actual trend is to administer a daily dose of 1 mg/kg body weight of two to eight consecutive days, and to cease injections when the leucopenia reaches 1,000 to 1,500 units per cc. It will be recalled that characteristic changes in the medullary cytology fcilitate the conducting of the treatment and help in its adaptation to each particular case. […] It is, moreover, at the end of the aplastic phase, when the number of leucocytes is rising again, that adjustement of the theraputic dose is difficult. When, the day after medication was stopped the leucopenia worsens and the medullary blasts change, it is required to wait for regeneration of the blood before proceeding with a bone marrow test. If the lqucopenia is not accentuated and the medullary cytology remains high with persistence of blastic cells, a second course is undertaken. […] The overall dosage corresponding to the group of courses making up the initial treatment, such as has just been defined, is far from being uniform; calculated per kg weight, it sometimes reaches 20 mg, a dose of around 25 mg being considered the maximum safe dose. […]

[3] = system: Staphylococcus aureus strain Hb; test: bacteriostatic activity, dilution method in nutritive broth; assay type: cell-based; conditions: read-out: Minimal bacteriostatic concentration
[4] = system: Staphylococcus aureus streptogramin resistant strain; test: as above; assay type: cell-based; conditions: read-out: Minimal bacteriostatic concentration
[5] = system: Shigella dysenteriae (Shiga L. - Institut Pasteur); test: microbe, parasite or virus in culture; assay type: cell-based; conditions: read-out: Minimal bacteriostatic concentration
neuroblastoma = test: utility in treating certain tumours; assay type: in vivo, human
[6] = system: Mycobacterium para-smegmatis (A 75 - Lausanne); test: bacteriostatic activity, dilution method in nutritive broth; assay type: cell-based; conditions: read-out: Minimal bacteriostatic concentration
[7] = system: Aerobacter aerogenes - ATCC 8308; test: as above; assay type: cell-based; conditions: Klebsiella aerogenes, ATCC8308, read-out: Minimal bacteriostatic concentration
nephroblastoma = test: utility in treating certain tumours; assay type: in vivo, human
Sarcina alba (Fac.Phie) = test: bacteriostatic activity, dilution method in nutritive broth; assay type: cell-based; conditions: read-out: Minimal bacteriostatic concentration
[8] = system: Bacillus brevis ATCC 8185; test: as above; assay type: cell-based; conditions: Brevibacillus brevis, ATCC8185, read-out: Minimal bacteriostatic concentration
[9] = system: Diplococcus pneumoniae (strain Til. Institut Pasteur); test: as above; assay type: cell-based; conditions: Streptococcus pneumoniae, read-out: Minimal bacteriostatic concentration
blood-forming centers = test: clinical safety of daunorubicin: blood formation; assay type: in vivo; conditions: human treatment
[10] = system: Bacillus subtilis ATCC 6633; test: bacteriostatic activity, dilution method in nutritive broth; assay type: cell-based; conditions: ATCC6633, read-out: Minimal bacteriostatic concentration
[11] = system: Streptococcus pyogenes Hemolyticus (strain Dig 7, Instut Pasteur); test: as above; assay type: cell-based; conditions: read-out: Minimal bacteriostatic concentration
[12] = system: Sarcina lutea - ATCC 9341; test: as above; assay type: cell-based; conditions: Micrococcus luteus, ATCC9341, read-out: Minimal bacteriostatic concentration
[13] = system: Proteus vulgaris (Fac. Phie); test: as above; assay type: cell-based; conditions: read-out: Minimal bacteriostatic concentration
[14] = system: Mycobacterium phlei (Bacteriological Institute of Lyon); test: as above; assay type: cell-based; conditions: Mycolicibacterium phlei, read-out: Minimal bacteriostatic concentration
[15] = system: Neisseria catarrhalis (Fac.Phie); test: as above; assay type: cell-based; conditions: read-out: Minimal bacteriostatic concentration
[16] = system: Bacillus cereus ATCC 6630; test: as above; assay type: cell-based; conditions: ATCC6630, read-out: Minimal bacteriostatic concentration
[17] = system: Bacillus subtilis or Klebsiella pneumoniae; test: paper chromatography with bioautography on seeded agar plates; assay type: cell-based; conditions: paper chromatogram
Source text: The antibiotic is chromatographed on Arches No.302 paper impregnated with a pH 4.8 phosphate buffer, with n-butanol saturated with water, using descending development. The chromatogram is developed by bioautography on nutritive agar plates seeded with Bacillus subtilis or Klebsiella pneumoniae.

[18] = subacute toxicity in the mouse (one dose per day for 5 days); conditions: in vivo
[19] = system: acute lymphoblastic leukemia; test: utility in treating certain tumours; assay type: in vivo, human
[20] = system: Alcaligenes faecalis - ATCC 8749; test: bacteriostatic activity, dilution method in nutritive broth; assay type: cell-based; conditions: ATCC8749, read-out: Minimal bacteriostatic concentration
[21] = system: acute myeloblastic leukemia; test: utility in treating certain tumours; assay type: in vivo, human
[22] = system: Bacillus lactis aerogenes (Fac. Phie); test: bacteriostatic activity, dilution method in nutritive broth; assay type: cell-based; conditions: read-out: Minimal bacteriostatic concentration
[23] = system: Staphylococcus aureus erythromycin resistant strain; test: as above; assay type: cell-based; conditions: read-out: Minimal bacteriostatic concentration
[24] = system: Micrococcus lysodeikticus; test: as above; assay type: cell-based; conditions: Micrococcus luteus, read-out: Minimal bacteriostatic concentration
[25] = system: Staphylococcus aureus carbomycin resistant strain; test: as above; assay type: cell-based; conditions: read-out: Minimal bacteriostatic concentration
[26] = system: Lactobacillus casei - ATCC 7469; test: as above; assay type: cell-based; conditions: Lacticaseibacillus casei, ATCC7469, read-out: Minimal bacteriostatic concentration
[27] = system: Streptococcus viridans (Institut Pasteur); test: as above; assay type: cell-based; conditions: read-out: Minimal bacteriostatic concentration
[28] = system: Staphylococcus aureus novobiocin resistant strain; test: as above; assay type: cell-based; conditions: read-out: Minimal bacteriostatic concentration
[29] = system: Streptococcus faecalis (Thiercelin's enterococcus Fac.Phie); test: as above; assay type: cell-based; conditions: read-out: Minimal bacteriostatic concentration

COc1cccc2c1C(=O)c1c(O)c3c(c(O)c1C2=O)C[C@@](O)(C(C)=O)C[C@@H]3O[C@H]1C[C@H](N)[C@H](O)[C@H](C)O1 [13057 RP daunorubicin, daunorubicin]
MIC [1]: 1.8 µg/mL (≈ 3.41 µM) | MTD [2]: ~25 mg/kg | MIC [3]: 5.3 µg/mL (≈ 10 µM) | MIC [4]: 1.9 µg/mL (≈ 3.6 µM) | MIC [5]: 2000 µg/mL (≈ 3790 µM) | utility in treating tumours (neuroblastoma): proved to be of utility | MIC [6]: 2.2 µg/mL (≈ 4.17 µM) | MIC [7]: 1000 µg/mL (≈ 1900 µM) | utility in treating tumours (nephroblastoma): proved to be of utility | MIC (Sarcina alba (Fac.Phie)): 3.3 µg/mL (≈ 6.26 µM) | MIC [8]: 1.4 µg/mL (≈ 2.65 µM) | MIC [9]: 0.89 µg/mL (≈ 1.69 µM) | action on the blood-forming centers (blood-forming centers): depressant action | MIC [10]: 1.2 µg/mL (≈ 2.27 µM) | MIC [11]: 1.6 µg/mL (≈ 3.03 µM) | MIC [12]: 1.2 µg/mL (≈ 2.27 µM) | MIC [13]: > 2000 µg/mL | MIC [14]: 5 µg/mL (≈ 9.48 µM) | MIC [15]: 2.2 µg/mL (≈ 4.17 µM) | MIC [16]: 2.2 µg/mL (≈ 4.17 µM) | active substance by bioautography [17]: active | LD50 ([18]; iv): 8.75 mg/kg | LD50 ([18]; sc): 13.7 mg/kg | utility in treating tumours [19]: proved to be of utility | MIC [20]: 1.8 µg/mL (≈ 3.41 µM) | utility in treating tumours [21]: proved to be of utility | MIC [22]: 120 µg/mL (≈ 227 µM) | MIC [23]: 3.8 µg/mL (≈ 7.2 µM) | MIC [24]: 2.5 µg/mL (≈ 4.74 µM) | MIC [25]: 5.3 µg/mL (≈ 10 µM) | MIC [26]: 1.2 µg/mL (≈ 2.27 µM) | MIC [27]: 43 µg/mL (≈ 81.5 µM) | MIC [28]: 3.9 µg/mL (≈ 7.39 µM) | MIC [29]: 19 µg/mL (≈ 36 µM)
